Test results reported in ChEMBL document CHEMBL6103618, “Discovery of Novel Oxazolo[4,3-f]purine Derivatives as Antitumor Agents through PPIA Interaction” (J Med Chem, 2025).
Calls of active or inactive are those of the source. No cut-off for these calls is given here.

Columns and labels:
HCT-116 [1] = assay: Induction of apoptosis in human HCT-116 cells harboring siPPIA-3 assessed as early apoptotic cells at 1.2 uM by Annexin V-FITC/PI staining based flow cytometry (reference value: 7.82 %); type: functional
HCT-116 [2] = assay: Induction of ER stress in human HCT-116 cells assessed as increase in ATF4 level at 0.3 to 1.2 uM by Western blot analysis; type: functional, cell-based; conditions: dose 0.3-1.2 µM
[3] = Toxicity in BALB/c mouse implanted with mouse CT26 cells assessed as injury in spleen at 15 to 45 mg/kg, ip qd treated for 14 days by H and E staining based analysis; type: organism-based; conditions: in vivo, 336 h, dose 15-45 mg/kg, time 14 day
HCT-116 [4] = assay: Antiproliferative activity against human HCT-116 cells at 0.3 to 1.2 uM incubated for 48 hrs by EdU uptake assay; type: functional, cell-based; conditions: dose 0.3-1.2 µM
HCT-116 [5] = assay: Effect on TK1 expression in human HCT-116 cells upto 6 uM incubated for 30 mins followed by pronase addition measured after 30 mins by DARTS assay; type: functional, cell-based
HCT-116 [6] = assay: Induction of intracellular ROS generation in human HCT-116 cells harboring siNC at 1.2 uM by flow cytometry (reference value: 8.22 %); type: functional
[7] = target: Peptidyl-prolyl cis-trans isomerase A (Homo sapiens, UniProt P62937); assay: Binding affinity to CM5 chip-immobilized PPIA (unknown origin) assessed as dissociation constant by SPR analysis
Peptidyl-prolyl cis-trans isomerase A, sequence (P62937 whole entry): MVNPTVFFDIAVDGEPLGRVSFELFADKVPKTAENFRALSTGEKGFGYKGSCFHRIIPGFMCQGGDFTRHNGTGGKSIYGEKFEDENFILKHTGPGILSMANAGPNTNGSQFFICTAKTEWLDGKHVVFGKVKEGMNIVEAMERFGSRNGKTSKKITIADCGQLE

C=C(C(=O)OC)N1c2nc(Cl)nc(Cl)c2N2C(c3ccccc3F)OC(C(=O)OCC)(C(=O)OCC)C12 (racemic)
Activity (HCT-116 [1]): 8.6%
Activity (HCT-116 [2]): Active
Activity [3]: Non-toxic
Activity (HCT-116 [4]): Active
Activity (HCT-116 [5]): No effect
Activity (HCT-116 [6]): 22.9%
Kd [7]: 0.52 µM
